Source: US20230218714A1, “DIAGNOSTICS AND USE OF QUORUM SENSING MOLECULES IN MUSCLE WASTING” (Universiteit Gent, priority 2019, published 2023)
Where “and” joins values, the source holds several entries; their conditions need not be identical. Equal values may be shown once. Entries after “also recorded” stand apart in the source; their conditions may differ. Where no end group is shown, it is not given here.

Assays:
C2C12 cells [1] = assay: Co-treatment of C2C12 cells with QSP and ala-scan derivative, IL-6 response; type: cell-based, mouse; conditions: Q176 50 μM plus derivative 60 μM
Excerpt: (§1) Means±SEM, n=6. * P<0.05; ** P<0.01, *** P<0.001; paired Student's t test.

C2C12 cells [2] = assay: Co-treatment of C2C12 cells with Q176 and ala-scan derivative, MTT response; type: cell-based, mouse; conditions: Q176 50 μM plus derivative 60 μM
Excerpt: as §1

[3] = system: IL-6 production by C2C12 myotubes; assay: IL-6 production by C2C12 myotubes (sandwich ELISA); type: cell-based, mouse; conditions: for Effect: inflammation (IL-6 production, hit direction): screening at 1 μM
Method: C2C12 myoblasts (2.5×10^4 cells/well) were seeded in 96-well plates and incubated until they reached 80% confluency, after which the proliferation medium was removed and replaced by differentiation medium. After 6 days of incubation with daily renewed differentiation medium, the cells were treated with 1 μM of QSM, placebo or positive control (LPS) for 24 hours. IL-6 levels were determined in the supernatants using a sandwich ELISA (eBioscience), using IL-6 capture antibody, blocking solution, samples and standards, IL-6 detection antibody, avidin-horseradish peroxidase and substrate solution which were added sequentially, with washing steps in between. After stopping the reaction with H2SO4 solution, the absorbance was measured at 450 nm and 570 nm (correction wavelength) using a microplate reader (ThermoLab Systems). Concentrations were determined using the standard curves generated with known concentrations of IL-6.
Several pro-inflammatory cytokines are elevated in sepsis, cancer, ageing and other catabolic diseases. They are thought to trigger muscle wasting (partly) through NF-kB pathways. […] In these screening experiments, the effects of QSM on myotube IL-6 production were assessed using a sandwich ELISA.
(§2) In a further set of experiments, using similar methods as described for the screening experiments, a number of QSPs were tested for a dose response relation in C2C12 cells.

human muscle cells [4] = assay: IL-6 production dose response in human muscle cells; type: cell-based; conditions: FIG. 12
Method: (§3) Differentiation medium consisted of high glucose Glutamax DMEM supplemented with penicillin (100 units/ml), streptomycin (100 μg/ml) and insulin (10 μg/mL).
(§4) Using similar methods as described for the C2C12 experiments, a number of QSPs were tested for a dose response relation in human muscle cells.

[5] = system: atrogin, MuRF1, caspase 3 and atg7; assay: Protein degradation gene expression in C2C12 cells (RT-qPCR); type: cell-based, mouse
Method: C2C12 cells were seeded in 6-well (4×10^5 cells/well) or 12-well plates (1.5×10^5 cells/well). […] Thereafter, cells were scraped off from the well surface and resuspended in RLT lysis buffer (Qiagen). RNA was extracted from these lysed cells using RNeasy micro columns (Qiagen). Subsequently, RNA was reverse-transcribed using a mix of oligo-dT and random primers together with Quantiscript reverse transcriptase (Qiagen). DNAse steps were included in the protocol to remove possible DNA contamination. Real-time PCR was performed starting with 7.5 ng cDNA and both sense and antisense oligonucleotides in a final volume of 8 μl in a 384-well plate using the SensiMix SYBR green PCR master mix (Bioline). The following genes were analysed: atrogin, MuRF1, caspase 3 and atg7.
The second derivative method was used to determine the threshold or Cq values, with analysis of Ppia (Peptidylprolyl isomerase A), Rer (Rhodopsin enhancer region) and Hprt (Hypoxanthine-guanine phosphoribosyltransferase) mRNA to normalize gene expression (delta Cq method). […]
To screen the possible effects of 75 QSM on these 3 proteolysis systems, mRNA transcripts of the following representative genes were measured: atrogin and MuRF1 (UPS), caspase 3 (apoptosis system) and autophagy-related protein 7 (autophagy system). […]

[6] = system: GDF15 production by C2C12 myotubes; assay: GDF15 production by C2C12 myotubes (sandwich ELISA), mitochondrial changes; type: cell-based, mouse; conditions: QSM 1 μM, C2C12 myotubes
Method: GDF15 levels were determined in the supernatants of C2C12 cells after QSM, placebo or positive control (oligomyin) treatment, using a sandwich ELISA (R&D Systems). A similar protocol as described for the IL-6 determination was used.
GDF15 is considered a useful biomarker for direct or indirect changes in mitochondrial function. Moreover, GDF15 is implicated in muscle wasting diseases like sarcopenia, chronic obstructive pulmonary disease cachexia and critical illness.

C. elegans = C. elegans swimming behaviour (muscle wasting/aging model); type: in vivo; set-up: key to Wave initiation rate / Asymmetry / Stretch / Curling / Travel speed / Brush stroke / Activity index: relative to placebo set to 1.0; conditions: for muscle wasting / aging muscle phenotype in C. elegans: QSP in medium (1 μM; QSP022 also 10 μM), swimming parameters; for Activity index / Asymmetry / Body wave number / Brush stroke / Curling / Stretch / Travel speed / Wave initiation rate: DMSO positive control
Excerpt: The C. elegans model is a well-established aging model: they diminish in locomotory vigor as they age, a phenomenon that is attributed to a physical deterioration of muscle and synapses. QSPs were introduced in the medium of living C. elegans. As comparisons, a placebo experiment was used as negative control, while DMSO was used as positive control.
Using automatic, objective imaging software, different swimming behaviour variables associated with this decrease in locomotory vigor or muscle wasting were investigated. Wave initiation rate, travel speed, brush stroke and activity index do decrease with muscle wasting, while body wave number, asymmetry, curling and stretch do increase with muscle wasting, as described in Restif et al., Plos Computational Biology, 2014.
More in particular, the results in these tables show Q184-associated changes in three swimming parameters in wild-type adults at day 3 (Table 9) and day 12 (Table 10) (n=120-170 from 3 independent trials for each condition). Data presented are means±s.e.m (placebo set to 1.0).

human muscle cells [7] = assay: MTT reduction dose response in human muscle cells; type: cell-based; conditions: FIG. 9
Method: as §3, §4

C2C12 myoblasts = assay: MTT cell viability assay in C2C12 myoblasts
Method: The mouse myoblast C2C12 cell line (ATCC, CRL-1772) was cultured at 37° C. in a 5% CO2 humidified incubator in Dulbecco's modified Eagle medium (DMEM; Thermo Fisher Scientific). For C2C12 cell proliferation, the medium was supplemented with 10% fetal bovine serum (FBS; Thermo Fisher Scientific), 100 units/ml penicillin, and 100 μg/ml streptomycin (1% Pen/Strep; Thermo Fisher Scientific). The proliferation medium was renewed each 2-3 days and confluency was kept below 80%. For differentiation of the C2C12 myoblasts into myotubes, proliferation medium was replaced by differentiation medium when cells reached 80% confluency.
Viability of QSM was assessed using the 3-(4,5-dimethylthiazol-2-yl)-2,5-diphenyltetrazolium bromide (MTT) assay. Briefly, C2C12 myoblasts were seeded in a 96-well plate (3×10^4 cells/well). 24 hours post-seeding, the wells were treated with QSM (1 μM), placebo or positive control (DMSO 2%) and incubated for 24 hours at 37° C. Next, 20 μL of MTT reagent (5 mg/mL; Sigma-Aldrich) was added to each well and the plates were returned to the incubator for 2.5 hours. After incubation, supernatant was removed from the wells and 150 μL of DMSO was added to release and dissolve the formazan crystals. Absorbance was measured at 570 nm using a microplate reader (Thermo Fisher).
The MTT assay is a widely validated and accepted viability assay for screening experiments. In this assay, the reduction of MTT into formazan, catalysed by living cell enzymes, is used as a marker of cell viability. If QSM are cytotoxic or cytostatic towards C2C12 cells, a decrease in MTT reduction is expected (viability less than 100%), while an increased C2C12 proliferation caused by QSM will result in an increased MTT reduction (viability more than 100%).
In a further set of experiments, the dose response effect of QSPs Q22 and Q184 was assessed on MTT reduction of C2C12 myotubes (tables 7.4 and 7.5).

C2C12 myotubes = assay: MTT reduction dose response in C2C12 myotubes; type: cell-based, mouse
Method: as §2

[8] = C. elegans medium, 1 μM during 12 days
[9] = day 3, placebo set to 1.0, Q184 at 1 μM
[10] = day 12, placebo set to 1.0, Q184 at 1 μM

GSLSTFFRLFNASFTQALGK (Synthetic Q176-A13)
effect on Q176 mediated IL-6 induction (C2C12 cells [1]): inhibiting the Q176 mediated IL-6 induction | effect on Q176 mediated IL-6 induction (C2C12 cells [1]; listed as QSP176-A13): clearly abolishes both effects | effect on Q176 mediated MTT effect (C2C12 cells [2]): inhibiting the Q176 mediated MTT effect | effect on Q176 mediated MTT effect (C2C12 cells [2]; listed as QSP176-A13): clearly abolishes both effects

KSSAYSLQMGATAIKQVKKLFKKWGW [Q125]
relative IL-6 production ([3]; QSM 1 μM, 24 h, relative to median of all QSM): 171% | Relative IL-6 ([3]; concentration 0.20 μM): 0.89 | Relative IL-6 ([3]; concentration 0.39 μM): 0.90 | Relative IL-6 ([3]; concentration 1.56 μM): 1.28 | Relative IL-6 ([3]; concentration 3.13 μM): 1.96 | Relative IL-6 ([3]; concentration 6.25 μM): 2.08 | Relative IL-6 ([3]; concentration 12.5 μM): 4.89 | Relative IL-6 ([3]; concentration 25 μM): 5.55 | Relative IL-6 ([3]; concentration 50 μM): 8.23 | Relative IL-6 ([3]; concentration 100 μM): 9.80 | Effect: inflammation (IL-6 production, hit direction) [3]: increased IL-6 production; also recorded: ↑ inflammation | dose response relation, IL6 production (human muscle cells [4]): Typical curves were obtained

NEVPFEF [Q146]
decrease in MuRF1 gene expression compared to placebo ([5]; QSM 1 μM, 24 h, individual screening): ~20% and 20% | Effect: proteolysis (hit direction) ([5]; screening at 1 μM): ↓ proteolysis | GDF15 secretion, effect relative to median [6]: 80%

SGSLSTFFRLFNRSFTQALGK [Q176]
Relative IL-6 ([3]; concentration 0.20 μM): 1.00 | Relative IL-6 ([3]; concentration 0.39 μM): 0.89 | Relative IL-6 ([3]; concentration 1.56 μM): 1.53 | Relative IL-6 ([3]; concentration 3.13 μM): 1.61 | Relative IL-6 ([3]; concentration 6.25 μM): 2.39 | Relative IL-6 ([3]; concentration 12.5 μM): 3.24 | Relative IL-6 ([3]; concentration 25 μM): 3.49 | Relative IL-6 ([3]; concentration 50 μM): 5.81 | Relative IL-6 ([3]; concentration 100 μM): 6.01 | Effect: inflammation (IL-6 production, hit direction) [3]: increased IL-6 production; also recorded: ↑ inflammation | dose response relation, IL6 production (human muscle cells [4]): Typical curves were obtained

SIFTLVA [Q184, SIFTLVA]
muscle wasting / aging muscle phenotype in C. elegans (C. elegans): induced a muscle wasting phenotype; also recorded: muscle wasting effects; also recorded: inducing a muscle wasting phenotype | muscle wasting / aging muscle phenotype in C. elegans (C. elegans; listed as QSP184): induces an aging muscle phenotype | Activity index (C. elegans; [9]): 0.82 | Asymmetry (C. elegans; [9]): 1.10 | Body wave number (C. elegans; [9]): 1.01 | Brush stroke (C. elegans; [9]): 0.87 | Curling (C. elegans; [9]): 0.92 | Stretch (C. elegans; [9]): 1.03 | Travel speed (C. elegans; [9]): 0.55 | Wave initiation rate (C. elegans; [9]): 0.90 | Activity index (C. elegans; [10]): 0.85 | Asymmetry (C. elegans; [10]): 1.37 | Body wave number (C. elegans; [10]): 1.29 | Brush stroke (C. elegans; [10]): 0.89 | Curling (C. elegans; [10]): 1.50 | Stretch (C. elegans; [10]): 1.06 | Travel speed (C. elegans; [10]): 0.81 | Wave initiation rate (C. elegans; [10]): 0.84 | dose response relation, MTT reduction (human muscle cells [7]): Typical curves were obtained | Imax (relative MTT) (C2C12 myoblasts; Blasts): 0.63 relative MTT | IC10 (C2C12 myoblasts; MTT, Blasts): 400 nM | IC50 (C2C12 myoblasts; MTT, Blasts): 1490 nM | Effect: viability (hit direction) (C2C12 myoblasts; screening at 1 μM, hit selection by MAD/quartile/SSMD/robust SSMD): decreasing viability hits | IC10 (C2C12 myotubes; MTT, Tubes): 10 nM | IC50 (C2C12 myotubes; MTT, Tubes): 60 nM | Imax (relative MTT) (C2C12 myotubes; Tubes): 0.48 relative MTT | Relative MTT (C2C12 myotubes; concentration 0.10 μM): 0.68 | Relative MTT (C2C12 myotubes; concentration 0.50 μM): 0.60 | Relative MTT (C2C12 myotubes; concentration 1.00 μM): 0.56 | Relative MTT (C2C12 myotubes; concentration 5.00 μM): 0.49 | Relative MTT (C2C12 myotubes; concentration 10 μM): 0.49 | stability in the medium [8]: high stability
